One data set has as its system Hep-G2 cells. The experiment in a line: Cell cytotoxicity CC50. The class given is cell-based. Particulars: mean of at least two experiments. The text has this:
(§1) Plates were scanned and analysed using the Immunospot S6 Macro analyser, which is equipped with BioSpot analysis software for counting immunostained plaques (virospots). Plaque counts were used to calculate % infection relative to the mean of the plaque count in the virus control wells for RSV. […] Plaque EC50 and cell toxicity CC50 values are a mean of at least two experiments and figures are rounded to whole units.

In the next data set the test system is RSV A2. The experiment in a line: RSV plaque reduction assay. The class given is cell-based, RSV (RSV A2 ECACC, 0709161v). Conditions: Hep-G2 cells, RSV A2, 2 days, mean of at least two experiments. The method in brief: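 Hep-G2 monolayers infected with 100 PFU/well RSV A2 premixed with eight compound dilutions, 2 h at 37° C, then overlaid with 0.8% CMC/2% FBS DMEM containing compound for 2 days. Plaques immunostained (HRP/TrueBlue) and counted; EC50 from % infection versus virus control, mean of at least two experiments.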

A further data set can be described thus: Cell cytotoxicity CC50. The class given is cell-based. Particulars: human; mean of at least two experiments.
Source text: as §1

Data set [1] in a line: Liver microsomal stability (human). Conditions: 1 µM compound; for half-life at 1 µM: pooled liver microsomes, pH 7.4, 0.5 mg/mL protein, read-out: Liver Microsomal Stability t½. The class given is in vitro ADME. The method, then: (§2) Compounds were subjected to the following assays to investigate liver microsomal stability.
(§3) Pooled liver microsomes were purchased from a reputable commercial supplier and stored at -80° C. prior to use. Microsomes (final protein concentration 0.5 mg/mL), 0.1 M phosphate buffer pH 7.4 and test compound (final substrate concentration 1 µM; final DMSO concentration 0.25%) were pre-incubated at 37° C. prior to the addition of NADPH (final concentration 1 mM) to initiate the reaction. The final incubation volume was 50 µL. A control incubation was included for each compound tested where 0.1 M phosphate buffer pH 7.4 was added instead of NADPH (minus NADPH). Two control compounds were included with each species. All incubations were performed singularly for each test compound. Each compound was incubated for 0, 5, 15, 30 and 45 min. The control (minus NADPH) was incubated for 45 min only. The reactions were stopped by transferring incubate into acetonitrile at the appropriate time points, in a 1:3 ratio. The termination plates are centrifuged at 3,000 rpm for 20 min at 4° C. to precipitate the protein. Following protein precipitation, the sample supernatants were combined in cassettes of up to 4 compounds, internal standard added, and samples analysed by LC-MS/MS. From a plot of In peak area ratio (compound peak area/internal standard peak area) against time, the gradient of the line was determined. Subsequently, half-life (t½) and intrinsic clearance (CLint) were calculated.

Data set [2] is described as follows: Liver microsomal stability (dog). Conditions: 1 µM compound; for half-life at 1 µM: pooled liver microsomes, pH 7.4, 0.5 mg/mL protein, read-out: Liver Microsomal Stability t½. The class given is in vitro ADME. As to the method: as §2, §3
The nature of data set [3]: Liver microsomal stability (rat). The class given is in vitro ADME. Conditions: 1 µM compound; for half-life at 1 µM: pooled liver microsomes, pH 7.4, 0.5 mg/mL protein, read-out: Liver Microsomal Stability t½. As to the method: as §2, §3
The next data set relates to RSV. Conditions: Antimicrobial Agents and Chemotherapy, September 2007, 3346-3353; cited from earlier work.
Data set [4] in a line: In vivo pharmacokinetics in rats. The arrangement: species or system rats [Sprague Dawley (SD)]. Particulars: male SD rats. The method, then:
The pharmacokinetics of compounds were studied in vivo in rats at doses of 1 mg/kg (IV) and 10 mg/kg (PO).
Male rats [Sprague Dawley (SD)] surgically prepared with a jugular vein cannula were treated with experimental compounds via intravenous administration (IV; n=3; 1 mg/kg) or oral administration (PO; n=3; 10 mg/kg). Compounds were formulated as a solution in 40:60 dimethylacetamide:saline (IV administration) and a solution of 10% DMSO, 10% cremaphor in water (80%) (PO administration). […] Serial blood samples were collected via the cannula at 0.02, 0.08, 0.25, 0.5, 1, 2, 4, 6, 8 and 24 h post IV dosing of compound, and at 0.08, 0.25, 0.5, 1, 2, 4, 6, 8 and 24 h post oral dosing of compound, and plasma was prepared by centrifugation and stored immediately at -80° C. Samples were subsequently thawed, prepared for analysis by protein precipitation with acetonitrile, and analysed by tandem LCMS using electrospray ionisation using a matrix-matched calibration curve. PK parameters were calculated from the resulting data.

[5] abbreviates: human respiratory syncytial virus, HepG2, 48 h.

In the data set with Hep-G2 cells, `CCC1CCCn2nc(-c3ccccc3F)c(C(=O)N[C@H]3N=C(c4ccccc4)c4cccc(F)c4NC3=O)c2O1` (single isomer, unassigned) [Example 25-2, (5S*)-5-ethyl-2-(2-fluorophenyl)-N-[(3S)-9-fluoro-2-oxo-5-phenyl-1,3-dihydro-1,4-benzodiazepin-3-yl]-5,6,7,8-tetrahydropyrazolo[5,1-b][1,3]oxazepine-3-carboxamide] registered a CC50 above 25000 nM. The molecule further came in with an EC50 in the data set on RSV A2 of 83 nM.

In the data set on Hep-G2 cells, `CCC1CCCn2nc(-c3ccc(C)nc3)c(C(=O)N[C@H]3N=C(c4ccccc4)c4ccccc4NC3=O)c2O1` (single isomer, unassigned) [Example 26-2, (5S*)-5-ethyl-2-(6-methylpyridin-3-yl)-N-[(3S)-2-oxo-5-phenyl-2,3-dihydro-1H-1,4-benzodiazepin-3-yl]-5H,6H,7H,8H-pyrazolo[3,2-b][1,3]oxazepine-3-carboxamide] had a CC50 above 25000 nM. In the data set on RSV A2, this molecule registered an EC50 of 329 nM.

Regarding `CCC1CCCn2nc(-c3ccc(C)nc3)c(C(=O)N[C@H]3N=C(c4ccccc4)c4cccc(F)c4NC3=O)c2O1` (single isomer, unassigned) [Example 27-2, (5S*)-5-ethyl-N-[(3S)-9-fluoro-2-oxo-5-phenyl-2,3-dihydro-1H-1,4-benzodiazepin-3-yl]-2-(6-methylpyridin-3-yl)-5H,6H,7H,8H-pyrazolo[3,2-b][1,3]oxazepine-3-carboxamide], in the data set with Hep-G2 cells, the CC50 was above 25000 nM. Also, in the data set on RSV A2, it took 259 nM to reach a half-maximal effect (EC50).

`O=C(N[C@H]1N=C(c2ccccc2)c2cccc(F)c2NC1=O)c1c(-c2ccccc2F)nn2c1OCCCC2` [Example 2, N-[(3S)-9-Fluoro-2-oxo-5-phenyl-1,3-dihydro-1,4-benzodiazepin-3-yl]-2-(2-fluorophenyl)-5,6,7,8-tetrahydropyrazolo[5,1-b][1,3]oxazepine-3-carboxamide] yielded a 50% cytotoxic concentration (CC50) in “Cell cytotoxicity CC50” above 25000 nM. Moreover, the half-life at 1 µM in data set [1] came to 6.05 h; in data set [2], 5.42 h; in data set [3], 0.853 h. For the same molecule, it took 33 nM to reach a half-maximal effect with RSV A2 (setting [5]) (EC50).

In turn, `O=C(N[C@H]1N=C(c2ccccc2)c2cccc(F)c2NC1=O)c1c(-c2ccccc2F)nn2c1OCC(F)(F)CC2` [Example 28, 6,6-Difluoro-N-[(3S)-9-fluoro-2-oxo-5-phenyl-2,3-dihydro-1H-1,4-benzodiazepin-3-yl]-2-(2-fluorophenyl)-5H,6H,7H,8H-pyrazolo[3,2-b][1,3]oxazepine-3-carboxamide] gave a CC50 in the data set “Cell cytotoxicity CC50” above 25000 nM. Moreover, the half-life at 1 µM in data set [1] amounted to 11.2 h; in data set [2] it was 31 h; in data set [3], 3.25 h. The molecule also showed an EC50 in the data set with RSV A2 (setting [5]) of 45 nM.

Consider `O=C(Nc1ccccc1F)N[C@H]1N=C(c2ccccc2)c2ccccc2NC1=O` [RSV604], for which the anti-RSV activity result in the data set on RSV is given as “sub-micromolar”.

As to “N-((S)-9-fluoro-2-oxo-5-phenyl-2,3-dihydro-1H-benzo[b]azepin-3-yl)-2-(2-fluorophenyl)-5,6,7,8-tetrahydro-5,8-methanopyrazolo[5,1-b][1,3]oxazepine-3-carboxamide [Example 19]”, the CC50 with Hep-G2 cells is above 25000 nM. Besides, the “Liver Microsomal Stability t½” value in data set [1] (human liver microsomes, 0.5 mg/mL protein) was determined as 1.23 h. The same molecule displayed an EC50 in the data set with RSV A2 of 37 nM. The “Liver Microsomal Stability t½” value in data set [2] (dog liver microsomes, 0.5 mg/mL protein) worked out at 1.92 h. For the same molecule, the “Liver Microsomal Stability t½” value in data set [3] (rat liver microsomes, 0.5 mg/mL protein) came out at 2.13 h. The “C 8 h” value in data set [4] (8 h, route not stated in the row) was 110 ng/mL. Besides, the “IV t½” value in data set [4] (IV 1 mg/kg) turned out to be 2.30 h. Besides, in data set [4] (PO 10 mg/kg), the “PO AUClast” value came to 4487 ng·h/mL and the “PO t½” value is recorded as 2.9 h. Also, the F in data set [4] (PO 10 mg/kg vs IV 1 mg/kg) was found to be 39.3%. Besides, in data set [4] (route not stated in the row, study IV 1 mg/kg, PO 10 mg/kg), the Cmax turned out to be 949 ng/mL. In data set [4] (study IV 1 mg/kg, PO 10 mg/kg), this molecule had a Cl of 16.1 mL/min/kg and a Vd of 2.8 L/kg.
